Measured values as given in ChEMBL document CHEMBL1126062, “Benzofuran bioisosteres of hallucinogenic tryptamines” (J Med Chem, 1992).

How the values were obtained:
[1] = target: T1, 5-hydroxytryptamine receptor 1A (Rattus norvegicus, UniProt P19327); experiment: Affinity on 5-hydroxytryptamine 1A receptor labeled by [3H]8-OH-DPAT
T1 sequence (P19327 whole entry): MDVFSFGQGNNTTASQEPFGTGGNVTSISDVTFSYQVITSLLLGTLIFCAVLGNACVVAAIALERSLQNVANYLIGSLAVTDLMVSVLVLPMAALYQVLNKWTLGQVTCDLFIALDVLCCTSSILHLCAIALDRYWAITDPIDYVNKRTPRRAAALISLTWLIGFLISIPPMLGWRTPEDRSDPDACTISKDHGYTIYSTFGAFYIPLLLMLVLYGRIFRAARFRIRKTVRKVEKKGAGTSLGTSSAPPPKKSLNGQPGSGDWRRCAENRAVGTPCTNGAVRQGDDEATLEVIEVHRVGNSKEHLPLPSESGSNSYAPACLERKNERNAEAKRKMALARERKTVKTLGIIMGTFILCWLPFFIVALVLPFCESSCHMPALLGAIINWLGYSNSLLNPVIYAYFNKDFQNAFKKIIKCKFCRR

[2] = target: Serotonin 2 (5-HT2) receptor (Rattus norvegicus, UniProt P30994+P08909+P14842); experiment: Affinity on 5-hydroxytryptamine 2 receptor labeled by [125I]DOI; format: protein assay

Row | Compound | Ki [1] | Ki [2]
1 | COc1ccc2occ(CC(C)N)c2c1 (stereo in doubt; 4) | 779 nM | 27.1 nM
2 | COc1ccc2occ(CCN(C)C)c2c1 | 101 nM | 95 nM
3 | COc1ccc2[nH]cc(CCN(C)C)c2c1 [MEBUFOTENIN] | 69 nM | 
4 | COc1ccc2occ(CC(C)N)c2c1 (racemic) | 445 nM | 42 nM
